From patent US12565500B2, “Substituted pyrrolo[1,2-b]pyridazines and pyrrolo[2,1-f][1,2,4]triazines as Btk inhibitors” (BIOGEN MA INC., priority 2019, dated 2026)

Legend:
BTK = BTK (Homo sapiens (Human), UniProt Q06187); experiment: In Vitro BTK Kinase Assay: Btk-PolyGAT-LS Assay; format: biochemical; conditions: ATP 10 μM, polyGAT 100 nM, BTK 0.25 nM
Experimental: In Vitro BTK Kinase Assay: Btk-PolyGAT-LS Assay
The purpose of the BTK in vitro assay is to determine compound potency against BTK through the measurement of IC50. Compound inhibition is measured after monitoring the amount of phosphorylation of a fluorescein-labeled polyGAT peptide (Invitrogen PV3611) in the presence of active BTK enzyme (Upstate 14-552), ATP, and inhibitor. The BTK kinase reaction was done in a black 96 well plate (costar 3694). For a typical assay, a […] aliquot of a ATP/peptide master mix (final concentration; ATP 10 μM, polyGAT 100 nM) in kinase buffer (10 mM Tris-HCl pH 7.5, 10 mM MgCl2, 200 μM Na3PO4, 5 mM DTT, 0.01% Triton X-100, and 0.2 mg/ml casein) is added to each well. Next, […] of a 4-fold, 40× compound titration in 100% DMSO solvent is added, followed by adding 15 uL of BTK enzyme mix in 1× kinase buffer (with a final concentration of 0.25 nM). The assay is incubated for 30 minutes before being stopped with […] of a 50 mM EDTA solution. Aliquots (5 uL) of the kinase reaction are transferred to a low volume white 384 well plate (Coming 3674), and 5 pL of a 2× detection buffer (Invitrogen PV3574, with 4 nM Tb-PY20 antibody, Invitrogen PV3552) is added. The plate is covered and incubated for 45 minutes at room temperature. Time resolved fluorescence (TRF) on Molecular Devices M5 (332 nm excitation; 488 nm emission; 518 nm fluorescein emission) is measured. IC50 values are calculated using a four parameter fit with 100% enzyme activity determined from the DMSO control and 0% activity from the EDTA control.
“†” represents an IC50 of greater than 1 μM and equal to or less than 10 μM. “††” represents an IC50 of greater than 10 nM and equal to or less than 1 μM (10 nM<IC50≤1 μM). “†††” represents an IC50 of greater than 1 nM and equal to or less than 10 nM (1 nM<IC50≤10 nM).

[1] = system: CD69 expression on CD19+ B cells in human whole blood; experiment: In Vitro whole blood CD69 Assay; format: cell-based; conditions: B-cell, human heparinized whole blood, anti-human IgD stimulation
Experimental: In Vitro whole blood CD69 Assay
Human heparinized venous blood from health donors was aliquoted into 96-well plate and “spiked” with serial dilutions of formula I compounds in DMSO or with DMSO without drug. The final concentration of DMSO in all wells was 0.1%. The plate was incubated at 37° C. for 30 min. Drug-containing samples were stimulated with 0.1 μg/mL mouse anti-human IgD-dextran (1A^62) or 20 μg/mL polyclonal rabbit F(ab′)2 anti-human IgD. Phosphate-buffered saline (PBS) was added to the negative control unstimulated sample and the plates were incubated overnight (18 to 22 hours) at 37° C. Cells were stained with fluorochrome-conjugated anti-CD19 and anti-CD69 antibodies. Lyse/fix solution was used to remove red blood cells by hypotonic lysis and to fix the remaining cells, which were then analyzed by flow cytometry. CD19+ B cells were gated and analyzed for CD69 expression. The percentage of B cells expressing CD69 was plotted versus the log 10 of the concentration of the drug and the best-fit curves (variable Hill slope) were generated to obtain the IC50 value.

Sequence of BTK (Q06187 whole entry): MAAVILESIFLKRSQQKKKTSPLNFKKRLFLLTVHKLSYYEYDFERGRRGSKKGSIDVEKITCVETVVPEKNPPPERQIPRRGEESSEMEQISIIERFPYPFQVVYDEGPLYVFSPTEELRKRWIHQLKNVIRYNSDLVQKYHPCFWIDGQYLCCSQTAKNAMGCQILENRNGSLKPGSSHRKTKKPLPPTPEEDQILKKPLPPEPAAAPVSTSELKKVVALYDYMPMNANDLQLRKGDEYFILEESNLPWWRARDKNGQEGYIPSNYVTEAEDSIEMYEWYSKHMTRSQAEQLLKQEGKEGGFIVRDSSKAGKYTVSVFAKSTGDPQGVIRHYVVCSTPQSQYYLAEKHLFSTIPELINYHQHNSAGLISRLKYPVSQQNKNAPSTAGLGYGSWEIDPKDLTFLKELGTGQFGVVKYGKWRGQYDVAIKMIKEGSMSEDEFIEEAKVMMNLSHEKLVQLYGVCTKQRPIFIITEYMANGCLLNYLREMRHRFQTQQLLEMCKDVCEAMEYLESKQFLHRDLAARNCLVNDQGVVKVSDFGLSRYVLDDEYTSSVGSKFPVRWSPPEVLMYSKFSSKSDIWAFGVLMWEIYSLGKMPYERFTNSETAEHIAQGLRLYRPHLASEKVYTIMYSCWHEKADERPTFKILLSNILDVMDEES

Row | SMILES | IC50 (BTK) [µM] | IC50 [1] [µM]
1 | Cc1cc(-c2ncnn3cccc23)ccc1CN1CCNC(C)C1=O (stereo not shown) [Compound 1, 3-methyl-1-(2-methyl-4-(pyrrolo[2,1-f][1,2,4]triazin-4-yl)benzyl)piperazin-2-one] | 1 to 10 | ≥ 10
2 | Cc1cc(-c2ncnn3cccc23)ccc1CN1CCN(CC(C)C)C(C)C1=O (stereo not shown) [Compound 2, 4-isobutyl-3-methyl-1-(2-methyl-4-(pyrrolo[2,1-f][1,2,4]triazin-4-yl)benzyl)piperazin-2-one] | 0.01 to 1 | ≥ 10
3 | Cc1cc(-c2ncnn3cccc23)ccc1CN1CCN(C2CC(F)(F)C2)C(C)C1=O (stereo not shown) [Compound 3, 4-(3,3-difluorocyclobutyl)-3-methyl-1-(2-methyl-4-(pyrrolo[2,1-f][1,2,4]triazin-4-yl)benzyl)piperazin-2-one] | 1 to 10 | 
4 | Cc1cc(-c2ncnn3cc(-c4cnn(C)c4)cc23)ccc1CN1CCN(CC(C)C)C(C)C1=O (stereo not shown) [Compound 4, 4-isobutyl-3-methyl-1-(2-methyl-4-(6-(1-methyl-1H-pyrazol-4-yl)pyrrolo[2,1-f][1,2,4]triazin-4-yl)benzyl)piperazin-2-one] | 0.001 to 0.01 | ≥ 10
